# Results: patent US5457091A, “N1-substituted 1H-1,2,3-triazolo[4,5,-D]pyrimidines, a process for their preparation and their use as antiviral agents” (priority 1992, dated 1995)
# Like-named read-outs stand apart in the source and are kept apart here.
# Assays:
# HCMV VR977 = test: CPE inhibition, HCMV VR977 in MRC-5 cells; type: cell-based, human cytomegalovirus; conditions: Human betaherpesvirus 5, MRC5, MIC = concentration protecting 50% of cells from CPE
# Description: (§1) The antiviral activity of the test substances on various human pathogenic DNA and RNA viruses was investigated in cell culture test systems.
# (§2) The test substances are diluted in ethanol to a final concentration of 1 mg/ml before the test, and Dulbecco's minimal essential medium (MEM) is used for further dilution steps. For the test, serial 3-fold dilutions of the test substances are made up in 96-well microtiter plates. Monkey kidney cells (Veto) in medium199 (5% FCS) or human embryonic diploid pulmonary fibroblast cells MRC-5 (Whittaker) are added in a concentration of 2×10^4 cells/well and incubated at 37° C. (5% CO2) for 3 h.
# (§3) The test mixtures contain the test substance in concentrations from 400 μg/ml to 0.18 μg/ml in MEM supplemented with 4% FCS (HeLa) or 2% FCS (Veto), 100 U/ml penicillin G and 100 μg/ml streptomycin.
# (§4) The cells are then infected with type 1 herpes simplex virus (corneas), type I herpes simplex virus VR733, type 1 herpes simplex virus VR539 (hominis), type 2 herpes simplex virus VR734 (MS), human cytomegalovirus VR977 or varicella zoster virus VR586 in concentrations at which the cell lawn is completely destroyed within 3 days (CMV: 7 days, VZV: 10 days) (for example HSV-1 corneae: 0.035 PFU/Vero cell, HSV-2: 0.066 PFU/Vero cell).
# (§5) The cultures are incubated at 37° C. in the presence of 5% CO2. All the investigations are carried out as duplicate determinations; controls are determined only once per plate.
# (§6) The untreated infection controls show a complete cytopathogenic effect (CPE) after incubation for a further 48 h (HCMV after 6 days, VZV after 9 days). After microscopic inspection of the cell cultures (HSV, HCMV, VZV), they are then stained (only HSV) with neutral red in accordance with the vital staining method of Finter (1966). The antiviral activity of a test substance is defined as the minimum inhibitory concentration (MIC) which is required to protect 50% of the cells from the cytopathogenic effect of the virus.
# [1] = Cytotoxicity by microscopic inspection, Vero cells; type: cell-based; conditions: monkey
# Description: as §2, §3, §5
# (§7) After incubation for 24 h, the cytotoxicity of the test substances is determined by microscopic inspection of the cell cultures. The maximum tolerated dose (MTD) is designated as the highest concentration of product which, under the said test conditions, is insufficient to cause microscopically detectable cell damage.
# HSV-1 corneae = test: CPE inhibition, HSV-1 corneae in Vero cells; type: cell-based, type 1 herpes simplex virus; conditions: Human alphaherpesvirus 1, MIC = concentration protecting 50% of cells from CPE
# Description: as §1, §2, §3, §4, §5, §6
# HSV-1 VR539 = test: CPE inhibition, HSV-1 VR539 in Vero cells; type: cell-based, type 1 herpes simplex virus; conditions: Human alphaherpesvirus 1, MIC = concentration protecting 50% of cells from CPE
# Description: as §1, §2, §3, §4, §5, §6
# [2] = Cytotoxicity by microscopic inspection, MRC-5 cells; type: cell-based; conditions: human, read-out: MTD (maximum tolerated dose)
# Description: as §2, §3, §5, §7
# HSV-2 VR734 = test: CPE inhibition, HSV-2 VR734 in Vero cells; type: cell-based, type 2 herpes simplex virus; conditions: Human alphaherpesvirus 2, MIC = concentration protecting 50% of cells from CPE
# Description: as §1, §2, §3, §4, §5, §6
# HSV-1 labialis = test: CPE inhibition, HSV-1 labialis in Vero cells; type: cell-based, type 1 herpes simplex virus; conditions: Human alphaherpesvirus 1, MIC = concentration protecting 50% of cells from CPE
# Description: as §1, §2, §3, §4, §5, §6
# HSV-1 VR733 = test: CPE inhibition, HSV-1 VR733 in Vero cells; type: cell-based, type 1 herpes simplex virus; conditions: Human alphaherpesvirus 1, MIC = concentration protecting 50% of cells from CPE
# Description: as §1, §2, §3, §4, §5, §6
# herpesviruses = test: Antiviral activity against herpesviruses (general statement); conditions: in words
# VZV VR586 = test: CPE inhibition, VZV VR586 in MRC-5 cells; type: cell-based, varicella zoster virus; conditions: Human alphaherpesvirus 3, MRC5, read-out: MIC VZV VR586
# Description: as §1, §2, §3, §5
# as §6, with “After” for “The untreated infection controls show a complete cytopathogenic effect (CPE) after incubation for a further 48 h (HCMV after 6 days, VZV after 9 days). After”
# HSV-1 = test: Therapeutic efficacy in NMRI mice infected intraperitoneally with HSV-1; type: in vivo; conditions: for Surviving/group size: observed 2 weeks; for ED50: Human alphaherpesvirus 1, from Reed & Muench, read-out: IC50 (the source's name)
# [3] = Vero cells, 24 h, read-out: MTD (maximum tolerated dose)
structure (smiles),measurement,setting,value
"Nc1nc2c(ncn2COCCO)c(=O)[nH]1 [Aciclovir, reference compound]",EC50,HCMV VR977,1.16 µg/mL
same,MNTC at 24 h,[1]; vero cells,≥ 400 µg/mL
same,EC50,HSV-1 corneae,≤ 0.98 µg/mL
same,EC50,HSV-1 VR539,0.98 µg/mL
same,MNTC at 24 h,[2],≥ 400 µg/mL
same,EC50,HSV-2 VR734,≤ 0.4 µg/mL
same,EC50,HSV-1 labialis,0.56 µg/mL
same,EC50,HSV-1 VR733,0.56 µg/mL
"CC(C)OCC(COC(C)C)OCn1nnc2nc(N)ncc21 [Example 7, 5-amino-1H-1-[(1,3-bis-isopropoxy-2-propoxy)methyl]-1,2,3-triazolo[4,5-d]pyrimidine]",activity against herpesviruses,herpesviruses,particularly high activity against herpesviruses
"CC(=O)Nc1ncc2c(nnn2COC(CO)CO)n1 [Example 8, 5-acetamido-1H-1-[(1,3-dihydroxy-2-propoxy)methyl]-1,2,3-triazolo[4,5-d]pyrimidine]",EC50,VZV VR586,0.18 µg/mL
same,EC50,HCMV VR977,7.13 µg/mL
same,MNTC at 24 h,[1]; [3],≥ 333 µg/mL
same,EC50,HSV-1 corneae,11.5 µg/mL
same,EC50,HSV-1 VR539,24.7 µg/mL
same,MNTC at 24 h,[2],≥ 311 µg/mL
same,EC50,HSV-2 VR734,37 µg/mL
same,EC50,HSV-1 labialis,7.68 µg/mL
same,EC50,HSV-1 VR733,6.58 µg/mL
"Nc1ncc2c(nnn2COC(CO)CO)n1 [Example 9, 5-amino-1H-1-[(1,3-dihydroxy-2-propoxy)methyl]-1,2,3-triazolo[4,5-d]pyrimidine]",EC50,VZV VR586,< 0.18 µg/mL
same,EC50,HCMV VR977,< 0.27 µg/mL
same,Average survival time,HSV-1; 9 × 3 μmol/kg ip,6.3 ± 0.6 days
same,Surviving/group size,HSV-1; 9 × 3 μmol/kg ip,2/5
same,Average survival time,HSV-1; 9 × 3 μmol/kg po,8.8 ± 1.6 days
same,Surviving/group size,HSV-1; 9 × 3 μmol/kg po,0/5
same,Surviving/group size,HSV-1; 9 × 10 μmol/kg ip,5/5
same,Average survival time,HSV-1; 9 × 10 μmol/kg po,6.2 ± 0.5 days
same,Surviving/group size,HSV-1; 9 × 10 μmol/kg po,0/5
same,Surviving/group size,HSV-1; 9 × 30 μmol/kg ip,5/5
same,Average survival time,HSV-1; 9 × 30 μmol/kg po,8.0 ± 1.7 days
same,Surviving/group size,HSV-1; 9 × 30 μmol/kg po,0/5
same,ED50,HSV-1; ip,3.7 µmol/kg
same,ED50,HSV-1; po,> 30 µmol/kg
same,MNTC at 24 h,[1]; [3],≥ 333 µg/mL
same,EC50,HSV-1 corneae,1.65 µg/mL
same,EC50,HSV-1 VR539,4.94 µg/mL
same,MNTC at 24 h,[2],≥ 356 µg/mL
same,EC50,HSV-2 VR734,2.93 µg/mL
same,EC50,HSV-1 labialis,1.1 µg/mL
same,activity against herpesviruses,herpesviruses,particularly high activity against herpesviruses
same,EC50,HSV-1 VR733,1.28 µg/mL
"CC(=O)OCC(COC(C)=O)OCn1nnc2nc(N)ncc21 [Example 10, 5-amino-1H-1-[(1,3-diacetoxy-2-propoxy)methyl]-1,2,3-triazolo [4,5-d]pyrimidine]",EC50,VZV VR586,< 0.18 µg/mL
same,EC50,HCMV VR977,< 0.3 µg/mL
same,Average survival time,HSV-1; 9 × 9 μmol/kg ip,11.0 ± 1.4 days
same,Surviving/group size,HSV-1; 9 × 9 μmol/kg ip,3/5
same,Average survival time,HSV-1; 9 × 9 μmol/kg po,8.8 ± 1.8 days
same,Surviving/group size,HSV-1; 9 × 9 μmol/kg po,0/5
same,Surviving/group size,HSV-1; 9 × 31 μmol/kg ip,5/5
same,Average survival time,HSV-1; 9 × 31 μmol/kg po,12.0 days
same,Surviving/group size,HSV-1; 9 × 31 μmol/kg po,4/5
same,Surviving/group size,HSV-1; 9 × 93 μmol/kg ip,5/5
same,Surviving/group size,HSV-1; 9 × 93 μmol/kg po,5/5
same,ED50,HSV-1; ip,< 9 µmol/kg
same,ED50,HSV-1; po,19.7 µmol/kg
same,MNTC at 24 h,[1]; [3],≥ 311 µg/mL
same,EC50,HSV-1 corneae,14.8 µg/mL
same,EC50,HSV-1 VR539,24.7 µg/mL
same,MNTC at 24 h,[2],≥ 74.1 µg/mL
same,EC50,HSV-2 VR734,24.7 µg/mL
same,EC50,HSV-1 labialis,9.88 µg/mL
same,activity against herpesviruses,herpesviruses,particularly high activity against herpesviruses
same,EC50,HSV-1 VR733,11.5 µg/mL
"Nc1nc(O)c2ncn(COC(CO)CO)c2n1 [Ganciclovir, reference compound]",EC50,VZV VR586,6.13 µg/mL
same,EC50,HCMV VR977,0.06 µg/mL
same,Average survival time,HSV-1; 9 × 3 μmol/kg ip,8.0 ± 0 days
same,Surviving/group size,HSV-1; 9 × 3 μmol/kg ip,3/5
same,Average survival time,HSV-1; 9 × 3 μmol/kg po,11.3 ± 1.5 days
same,Surviving/group size,HSV-1; 9 × 3 μmol/kg po,1/5
same,Surviving/group size,HSV-1; 9 × 10 μmol/kg ip,5/5
same,Average survival time,HSV-1; 9 × 10 μmol/kg po,9.5 ± 0.7 days
same,Surviving/group size,HSV-1; 9 × 10 μmol/kg po,3/5
same,Surviving/group size,HSV-1; 9 × 30 μmol/kg ip,5/5
same,Surviving/group size,HSV-1; 9 × 30 μmol/kg po,5/5
same,ED50,HSV-1; ip,< 3 µmol/kg
same,ED50,HSV-1; po,6.8 µmol/kg
same,MNTC at 24 h,[1]; [3],≥ 400 µg/mL
same,EC50,HSV-1 corneae,0.85 µg/mL
same,EC50,HSV-1 VR539,1.65 µg/mL
same,MNTC at 24 h,[2],≥ 400 µg/mL
same,EC50,HSV-2 VR734,1.93 µg/mL
same,EC50,HSV-1 labialis,≤ 0.18 µg/mL
same,EC50,HSV-1 VR733,0.95 µg/mL
